In patent US20220273016A1, “HUMAN MILK OLIGOSACCHARIDES FOR CONTROL OF DIETARY RESPONSE AND METABOLIC PHENOTYPE” (The Regents of the University of California, priority 2019, published 2022):
“Also recorded” adds a separate entry of the source.

Tests used:
[1] = Body weight and energy intake in mice fed a high-fat diet with 2′-FL in drinking water; format: in vivo, Male C57/BL6 mice; conditions: 2′-FL 10% (w/v) in drinking water, 6 wk, vs HF group
Experimental: Animals were maintained and handled in accordance with protocols approved by the Institutional Animal Care and Use Committee (University of California, Davis). Male C57/BL6 mice (n=6/group; 6 week old, Harlan, San Diego, Calif.) were split into three weight-matched groups and fed either a low-fat (LF; 10% kcal as fat), high-fat (HF; 45% kcal as fat), or HF diet with 2′-FL (HF_2′-FL) at 10% (w/v) in drinking water for 6 wk. All animals were housed individually at 22° C. with 12 h:12 h light-dark cycles. Body weight and food intake were measured twice a week. Statistical analysis was performed using Prism software (Prism 8.1.2; GraphPad Software). Six-week HF feeding increased energy intake compared to the LF groups but without statistical significance (FIG. 1B). […] For FIGS. 1A and 1B, data are presented as means±SEMs. ROUT test was used to exclude outliers. Differences were considered significant if P<0.05.

[2] = Body composition (EchoMRI fat and lean mass) and adipocyte size in mice fed LF or HF with or without 10% 2′-FL; format: in vivo; conditions: 10% 2′-FL supplementation diet, 8 weeks
Experimental: Body composition for fat and lean mass (FIGS. 2A and 2B) was analyzed in live animals using EchoMRI-100 ™ from Echo Medical Systems (Houston, Tex.) every two weeks in mice fed an LF or HF with or without 10% 2′-FL supplementation. To measure the size of adipocytes (FIG. 2C), mesenteric adipose tissue collected at euthanasia was fixed in 10% neutral-buffered formalin (Thermo Fisher Scientific, Waltham, Mass.) overnight and transferred to 70% ethanol for one day. Afterwards, the tissues were processed in a routine manner for paraffin sections (Tissue Tek VIP Tissue Processor; Sakura Finetek USA, Torrance, Calif.). Paraffin-embedded sections (5 μm) were cut and stained with H&E (Sigma-Aldrich) for microscopic examination (Olympus BX60, Waltham, Mass.) at 20× magnification. To quantitate adipocyte size (FIG. 2C), the H&E-stained sections were analyzed using the ImageJ software (National Institutes of Health, Bethesda, Md.). For hepatic gene expression of peroxisome proliferator-activated receptor γ (PPAR γ) and sterol regulatory element binding protein-1c (SREBP-1c) (FIGS. 2D and 2E), total RNA from liver samples was extracted via the TRIzol method (Life Technologies, Grand Island, N.Y.). cDNAs were synthesized from […] of purified RNA samples using iScript cDNA synthesis kit (Bio-Rad, Hercules, Calif.) following the manufacturer's protocol. Real-time PCR was performed with the Quantstudio 6 Flex real-time PCR machine using SyberGreen master mix (Life Technologies) for detection. R-Actin and GAPDH were used as housekeeping genes. Genes of interest were analyzed according to the 2^−ΔΔT method and compared with control samples.
For FIGS. 2A-2E, statistical analysis was performed by using Prism software (Prism 8.4; GraphPad Software, La Jolla, Calif.). Data are presented as means±SEMs. ROUT test was used to exclude outliers. Differences were considered significant if P<0.05.

[3] = tested on: peroxisome proliferator-activated receptor γ (PPAR γ); assay: Hepatic gene expression of PPARγ (real-time PCR); format: in vivo, mice; conditions: 10% 2′-FL supplementation diet, 8 weeks
Experimental: (§1) Body composition for fat and lean mass (FIGS. 2A and 2B) was analyzed in live animals using EchoMRI-100 ™ from Echo Medical Systems (Houston, Tex.) every two weeks in mice fed an LF or HF with or without 10% 2′-FL supplementation. To measure the size of adipocytes (FIG. 2C), mesenteric adipose tissue collected at euthanasia was fixed in 10% neutral-buffered formalin (Thermo Fisher Scientific, Waltham, Mass.) overnight and transferred to 70% ethanol for one day. Afterwards, the tissues were processed in a routine manner for paraffin sections (Tissue Tek VIP Tissue Processor; Sakura Finetek USA, Torrance, Calif.). Paraffin-embedded sections (5 μm) were cut and stained with H&E (Sigma-Aldrich) for microscopic examination (Olympus BX60, Waltham, Mass.) at 20× magnification. To quantitate adipocyte size (FIG. 2C), the H&E-stained sections were analyzed using the ImageJ software (National Institutes of Health, Bethesda, Md.). […] Genes of interest were analyzed according to the 2^−ΔΔT method and compared with control samples. […]

[4] = tested on: sterol regulatory element binding protein-1c (SREBP-1c); assay: Hepatic gene expression of SREBP-1c (real-time PCR); format: in vivo, mice; conditions: 10% 2′-FL supplementation diet, 8 weeks
Experimental: as §1

[5] = CCK feeding study (food intake after i.p. CCK); format: in vivo, mice; conditions: HF + 10% 2′-FL, CCK i.p. vs saline, 6 h fast
Experimental: (§2) After 4 weeks on respective diets, 2′-FL sensitivity to the satiating effect of the gut peptide CCK was tested (FIG. 3A). Experiments were performed at the onset of the dark phase. Mice were fasted on wire-bottom cages for 6 h during the light phase. At the onset of the dark phase, CCK (octapeptide, sulfated, Bachem, Torrance, Calif., 100 μl at […]; i.p.) or saline (100 μl; i.p.) was administered. Food was placed in the cage and food intake recorded after 20 min. After 6 weeks of respective diets, c-Fos expression in hindbrain was determined. (FIGS. 3B and 3C). Mice were fasted for 4 h, ip injected with CCK ([…]), and euthanized using deep anesthesia induced with pentobarbital (Fatal Plus, Vortech Pharmaceuticals, Dearborn, Mich., USA; 300 mg/kg; i.p.). The hindbrain was collected and post-fixed in 4% paraformaldehyde (Electron Microscopy Sciences, Hatfield, Pa.). Hindbrains were cryosectioned at 30 μm thickness and stained for c-Fos protein expression in the NTS and AP regions. […] Images were acquired using a confocal microscope (Leica TCS SP8 STED 3×; Leica, Wetzlar, Germany) and quantified in a blinded manner using Imaris Software (Bitplane, Zurich, Switzerland). […]

[6] = tested on: c-Fos; assay: c-Fos expression in hindbrain (NTS and AP) after CCK injection; format: in vivo, mice; conditions: 10% 2′-FL supplementation, CCK i.p.
Experimental: as §2

[7] = Gut permeability of cecum in Ussing chambers (FD-4 flux); format: in vivo, mice; conditions: 10% 2′-FL supplementation diet, 8 weeks, flux at 90 min
Experimental: (§3) To measure gut permeability (FIGS. 4A and 4B), a section of cecum was opened along the mesenteric border and mounted in Ussing chambers (Physiologic Instruments, San Diego, Calif.), exposing 0.3 cm^2 of tissue surface area to 2.5 ml of oxygenated Krebs-glucose (10 mM) and Krebs-mannitol (10 mM) at 37° C. on the serosal and luminal sides, respectively. The paracellular pathway and transcellular pathway were measured as the flux of FITC-4000 (FD-4; Sigma-Aldrich) and horseradish peroxidase (HRP Type VI; Sigma Aldrich), respectively. FD-4 ([…]) and HRP ([…]) were added to the mucosal chamber, and samples were collected from the serosal chamber every 30 min for 2 h. The concentration of FD-4 was measured via fluorescence at excitation of 485 nm and emission of 538 nm. O-dianisidine substrate was used to detect HRP at absorbance 450 nm. Data are shown as flux at 90 min. Gene expression of IL-22 in the ileum (FIG. 4C) and MCP-1 (FIG. 4E) in adipose tissue were measured as described in Example 2. LBP levels (FIG. 4D) were detected in plasma via enzyme-linked immunosorbent assay according to manufacturer's recommendation (Biometec). […] For FIGS. 4A-4E, statistical analysis was performed by using Prism software (Prism 8.4; GraphPad Software, La Jolla, Calif.). Data are presented as means SEMs. ROUT test was used to exclude outliers. Differences were considered significant if P<0.05.

[8] = tested on: lipopolysaccharide-binding protein (LBP); assay: Plasma LBP level by enzyme-linked immunosorbent assay; format: in vivo, mice; conditions: HF + 10% 2′-FL in drinking water, 6 weeks
Experimental: as §3

[9] = tested on: monocyte chemoattractant protein-1 (MCP-1); assay: Gene expression of MCP-1 in adipose tissue (real-time PCR); format: in vivo, mice; conditions: HF + 10% 2′-FL in drinking water, 6 weeks
Experimental: as §3

2′-fucosyllactose [2′-FL]
energy intake ([1]; HF diet (45% kcal as fat)): suppressed | body weight ([1]; HF diet): lower body weight compared with the HF group | adipogenesis (adipocyte size in visceral adipose tissue) [2]: suppresses adipogenesis | adiposity (fat body mass) [2]: reduced adiposity | lean mass [2]: preserving lean mass | gene expression of PPAR γ in the liver [3]: downregulates | gene expression of SREBP-1c in the liver [4]: downregulates | sensitivity to the satiating effect of CCK (food intake after 20 min) [5]: restores sensitivity to CCK | intestinal satiety signals (c-Fos immunopositive cells in NTS and AP) [6]: restores intestinal satiety signals | paracellular permeability (FD-4 flux in cecum) [7]: decreased paracellular permeability | circulating LPB levels [8]: reduced circulating LPB levels | expression of inflammatory cytokines in adipocytes (MCP-1 gene expression in adipose tissue) [9]: significant decrease of MCP-1 gene expression; also recorded: systemically lowered expression of inflammatory cytokines in adipocytes
